Results published in BindingDB's records for PubMed 2156866 (Nagoya University School of Medicine, 1990).
pKi: −log10 of the molar value.

Columns and labels:
Test in all cases: Enzyme Assay
Details in all cases: 30 °C
[1] = molecular target: Calcium/calmodulin-dependent protein kinase type II subunit beta (Homo sapiens, UniProt Q13554)
Text: (§1) Protein kinase C, cAMP dependent protein kinase, cGMP dependent protein kinase and myosin light chain kinase activity were measure under conditions described by Hidaka. Casein kinases I and II activities were meas8ured as described by Chijiwa. Ca/ calmodulin kinase II activity was measure d by the method described by McGuinness.

[2] = molecular target: Casein kinase I isoform alpha (Homo sapiens, UniProt P48729)
Sequence of Casein kinase I isoform alpha (P48729 whole entry, canonical isoform): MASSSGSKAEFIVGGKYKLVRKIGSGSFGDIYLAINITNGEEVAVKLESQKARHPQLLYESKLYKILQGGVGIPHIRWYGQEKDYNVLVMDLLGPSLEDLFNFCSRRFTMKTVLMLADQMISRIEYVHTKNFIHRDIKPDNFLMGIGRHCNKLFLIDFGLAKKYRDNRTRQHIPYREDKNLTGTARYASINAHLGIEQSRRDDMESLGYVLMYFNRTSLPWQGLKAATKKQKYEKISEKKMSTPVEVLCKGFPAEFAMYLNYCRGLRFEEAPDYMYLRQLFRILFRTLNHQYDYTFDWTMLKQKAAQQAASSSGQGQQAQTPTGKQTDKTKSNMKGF
Text: as §1

[3] = molecular target: Casein kinase II subunit alpha (Homo sapiens, UniProt P68400)
Sequence of Casein kinase II subunit alpha (P68400 whole entry): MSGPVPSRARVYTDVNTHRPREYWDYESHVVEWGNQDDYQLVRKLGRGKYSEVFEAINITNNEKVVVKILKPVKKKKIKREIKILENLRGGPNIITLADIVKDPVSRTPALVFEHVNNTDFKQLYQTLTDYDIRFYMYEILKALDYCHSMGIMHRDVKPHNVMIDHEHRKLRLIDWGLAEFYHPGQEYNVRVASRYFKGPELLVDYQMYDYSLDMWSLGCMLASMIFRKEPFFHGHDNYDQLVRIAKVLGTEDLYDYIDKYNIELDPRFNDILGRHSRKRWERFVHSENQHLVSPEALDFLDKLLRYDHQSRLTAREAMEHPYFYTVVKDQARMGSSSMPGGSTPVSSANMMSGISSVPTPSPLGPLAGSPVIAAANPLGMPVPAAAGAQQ
Text: as §1

[4] = molecular target: T1, cGMP-dependent protein kinase 1 (Homo sapiens, UniProt Q13976)
T1 sequence (Q13976 whole entry): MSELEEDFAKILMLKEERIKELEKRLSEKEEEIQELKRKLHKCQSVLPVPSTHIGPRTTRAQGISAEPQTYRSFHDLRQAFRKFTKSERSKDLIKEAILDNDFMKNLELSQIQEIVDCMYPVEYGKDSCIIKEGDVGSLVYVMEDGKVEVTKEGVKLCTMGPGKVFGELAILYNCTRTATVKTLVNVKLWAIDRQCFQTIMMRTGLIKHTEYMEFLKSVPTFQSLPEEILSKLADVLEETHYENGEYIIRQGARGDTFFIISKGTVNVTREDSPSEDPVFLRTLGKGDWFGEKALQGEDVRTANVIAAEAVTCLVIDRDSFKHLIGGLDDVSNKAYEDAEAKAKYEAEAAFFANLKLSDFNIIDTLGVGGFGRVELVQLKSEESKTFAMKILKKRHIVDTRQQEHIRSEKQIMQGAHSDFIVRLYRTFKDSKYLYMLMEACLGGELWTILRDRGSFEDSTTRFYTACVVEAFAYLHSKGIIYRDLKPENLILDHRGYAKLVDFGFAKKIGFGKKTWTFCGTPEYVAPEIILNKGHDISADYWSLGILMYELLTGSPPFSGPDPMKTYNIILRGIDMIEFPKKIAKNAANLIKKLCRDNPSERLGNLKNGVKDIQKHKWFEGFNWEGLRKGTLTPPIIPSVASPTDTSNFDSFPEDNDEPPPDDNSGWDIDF
Text: as §1

[5] = molecular target: cAMP-dependent protein kinase catalytic subunit alpha (Homo sapiens, UniProt P17612)
Text: as §1

[6] = molecular target: Protein kinase C alpha type (Homo sapiens, UniProt P17252)
Text: as §1

Sequence of Calcium/calmodulin-dependent protein kinase type II subunit beta (Q13554 whole entry): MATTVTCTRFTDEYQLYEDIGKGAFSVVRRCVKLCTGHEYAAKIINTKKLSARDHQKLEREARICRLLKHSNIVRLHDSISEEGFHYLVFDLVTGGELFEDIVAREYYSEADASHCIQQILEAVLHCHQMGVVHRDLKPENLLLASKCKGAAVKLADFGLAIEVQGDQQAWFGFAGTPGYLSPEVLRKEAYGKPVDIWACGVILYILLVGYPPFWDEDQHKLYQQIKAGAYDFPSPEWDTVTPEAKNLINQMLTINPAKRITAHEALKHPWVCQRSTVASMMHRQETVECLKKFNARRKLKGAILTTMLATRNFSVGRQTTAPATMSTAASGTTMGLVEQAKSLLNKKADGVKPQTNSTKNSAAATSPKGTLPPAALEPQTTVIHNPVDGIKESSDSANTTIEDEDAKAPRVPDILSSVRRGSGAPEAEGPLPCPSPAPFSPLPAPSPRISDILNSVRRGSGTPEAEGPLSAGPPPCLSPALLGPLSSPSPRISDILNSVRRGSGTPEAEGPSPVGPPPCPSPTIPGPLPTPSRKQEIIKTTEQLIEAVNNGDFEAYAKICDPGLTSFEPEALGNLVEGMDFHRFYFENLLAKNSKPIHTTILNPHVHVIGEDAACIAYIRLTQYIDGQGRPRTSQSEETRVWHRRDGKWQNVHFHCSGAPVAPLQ

pKi [1] | pKi [2] | pKi [3] | pKi [4] | pKi [5] | pKi [6] | SMILES
4.15 | 4.22 | 3.98 | 6.12 | 6.44 | 4.12 | O=S(=O)(NCCNC/C=C/c1ccccc1)c1cccc2cnccc12 [H-88]
4.53 | – | – | 6.32 | – | – | O=S(=O)(NCCNC/C=C/c1ccc(Br)cc1)c1cccc2cnccc12
